US6329338A, “Derivatives of cyclodepsipeptide PF1022 substance” (Meiji Seika Kaisha, Ltd., priority 1995, dated 2001)

Legend:
Haemonchus contortus = experiment: in vivo test on anthelmintic activity against sheep parasites (faecal egg count before and after dosing); details: sheep infested with Haemonchus contortus; oral, gelatine capsules
Text: "in vivo" Test on Anthelmintic Activity Against Sheep Parasites
To sheep on which a nematode, Haemonchus contortus has been infested, a test compounds formulated in the form of gelatine capsules was orally administered at its dose (mg) which was accurately calculated on the basis of the body weight (kg) of the tested sheep.
The number of eggs, which were excreted along with feces from the sheep under test, was counted quantitatively both before and after the administration of the test compound. Thus, the extent of the anthelmintic effects of the test compound was evaluated. The test results are shown in Table 1 below, wherein the tested compounds are indicated by the code number of each substance tested. In Table 1, there is shown the dosage of test compound at which involvement of the excretion of eggs could not be observed at all, that is to say, the dosage of each novel cyclodespsipeptide derivative of PF1022 substance according to this invention at which the parasite could be expelled or exterminated completely.

[1] = test system: Nippostrongylus brasiliensis; experiment: in vivo test on anthelmintic activity against Nippostrongylus brasiliensis in rats (adult parasites remaining in small intestine); details: male Wister rats, oral, ten days after administration, vs infected untreated control
Method: "in vivo" Test on Anthelmintic Activity Against Nipostrongylus brasiliensis Male rats of Wister strain, which have been artificially infected with Nippostrongylus brasiliensis, were used as test animals. The administration dose (mg) of each test compound was accurately calculated on the basis of the body weight (kg) of each rat. Each compound tested was used in the form of a solution in dimethlsulfoxide or methanol. The solution was diluted with a Ringer solution and forcedly administered orally to the test rats. Ten days after the administration, the rats were dissected and the number of adult parasites remaining in the small intestines of the rats was counted. Efficacy was calculated in comparison with the number of adult parasites in the control group of test rats (infected, but untreated) and is shown in Table 2 below.

Molecule | Adminstration dose (mg/kg): dosage at which excretion of eggs could not be observed at all (parasite expelled completely) (Haemonchus contortus) [mg/kg] | other results
CC(C)C[C@H]1C(=O)O[C@H](Cc2ccccc2)C(=O)N(C)[C@@H](CC(C)C)C(=O)O[C@H](C)C(=O)N(C)[C@@H](CC(C)C)C(=O)O[C@H](Cc2ccccc2)C(=O)N(C)[C@@H](CC(C)C)C(=O)O[C@H](C)C(=O)N1C [PF1022 substance, Cyclo(L-MeLeu-D-Lac-L-MeLeu-D-PhLac-L-MeLeu-D-Lac-L-MeLeu-D-PhLac)] | 0.25 | Efficacy (%) ([1]; dosage 10 mg/kg): 80.2%
CCN(CC)CCOc1ccc(C[C@H]2OC(=O)[C@H](CC(C)C)N(C)C(=O)[C@@H](C)OC(=O)[C@H](CC(C)C)N(C)C(=O)[C@@H](Cc3ccccc3)OC(=O)[C@H](CC(C)C)N(C)C(=O)[C@@H](C)OC(=O)[C@H](CC(C)C)N(C)C2=O)cc1 [PF1022-236, Cyclo[MeLeu-Lac-MeLeu-((C2 H5)2 NCH2 CH2 O)PhLac-MeLeu-Lac-MeLeu-PhLac]] | 0.01 | 
COCCN(CCOC)CCOc1ccc(CC2OC(=O)C(CC(C)C)N(C)C(=O)C(C)OC(=O)C(CC(C)C)N(C)C(=O)C(Cc3ccccc3)OC(=O)C(CC(C)C)N(C)C(=O)C(C)OC(=O)C(CC(C)C)N(C)C2=O)cc1 (stereo not drawn) [PF1022-238, Cyclo[MeLeu-((CH3 OCH2 CH2)2 NCH2 CH2 O)PhLac-MeLeu-Lac-MeLeu-PhLac-MeLeu-Lac]] | 0.01 | 
Cyclo[MeLeu-(Mor)PhLac-MeLeu-Lac-MeLeu-PhLac-MeLeu-Lac] [PF1022-233] | 0.05 | Efficacy (%) ([1]; dosage 1 mg/kg): 99.1%; Efficacy (%) ([1]; dosage 2 mg/kg): 100%; Efficacy (%) ([1]; dosage 5 mg/kg): 100%
Cyclo[MeLeu-(Mor)PhLac-MeLeu-Lac] [reference compound] | 0.05 | 
Cyclo[MeLeu-(MorCH2 CH2 O)PhLac-MeLeu-Lac-MeLeu-PhLac-MeLeu-Lac] [PF1022-239] | 0.025 | 
Cyclo[MeLeu-(o-Mor)PhLac-MeLeu-Lac-MeLeu-(p-Mor)PhLac-MeLeu-Lac] [PF1022-280] |  | Efficacy (%) ([1]; dosage 1 mg/kg): 95.8%; Efficacy (%) ([1]; dosage 2 mg/kg): 99.3%; Efficacy (%) ([1]; dosage 5 mg/kg): 100%
Cyclo[MeLeu-Lac-MeLeu-((C2 H5)2 NHCH2 CH2 O)PhLac]2 [PF1022-263] | 0.01 | 
Cyclo[MeLeu-Lac-MeLeu-((C6 H5)2 CHOCO)Lac-MeLeu-Lac-MeLeu-PhLac] [PF1022-046] | 0.1 | 
Cyclo[MeLeu-Lac-MeLeu-((C6 H5)2 CHOCO)Lac]2 [PF1022-045] | 0.1 | 
Cyclo[MeLeu-Lac-MeLeu-((CH3)2 NCH2 CH2 O)PhLac-MeLeu-Lac-MeLeu-PhLac] [PF1022-235] | 0.1 | 
Cyclo[MeLeu-Lac-MeLeu-(Bu2 NCH2 CH2 O)PhLac-MeLeu-Lac-MeLeu-PhLac] [PF1022-271] |  | Efficacy (%) ([1]; dosage 5 mg/kg): 100%
Cyclo[MeLeu-Lac-MeLeu-(Pr2 NCH2 CH2 O)PhLac-MeLeu-Lac-MeLeu-PhLac] [PF1022-270] |  | Efficacy (%) ([1]; dosage 2 mg/kg): 94.2%; Efficacy (%) ([1]; dosage 5 mg/kg): 99.7%
Cyclo[MeLeu-Lac-MeLeu-(furfuryloxy)PhLac-MeLeu-Lac-MeLeu-PhLac] [PF1022-312] | 0.05 | 
Cyclo[MeLeu-Lac-MeLeu-(imidazolyl-4-methoxy)PhLac-MeLeu-Lac-MeLeu-PhLac] [PF1022-304] | 0.05 | 
Cyclo[MeLeu-Lac-MeLeu-(pipCH2 CH2 O)PhLac-MeLeu-Lac-MeLeu-PhLac] [PF1022-285] | 0.1 | 
Cyclo[MeLeu-Lac-MeLeu-(t-BuO)PhLac]2 [PF1022-222] | 0.05 | 
Cyclo[MeLeu-Lac-MeLeu-PhLac-MeLeu-Lac-MeLeu-(NH2 CO)PhLac] [PF1022-242] | 0.01 | 
